For series [1], the target named is T1, CXCR4 (Homo sapiens, UniProt P61073). The experiment in a line: CXCL12-induced calcium mobilization assay in U87.CD4.CXCR4 cells (FLIPR). The class given is cell-based. Particulars: concentration needed to inhibit CXCL12-induced calcium signaling by 50%, 6.25 nM CXCL12, mean ± SD. The protocol:
(§1) First, the ability of the compounds to compete with fluorescently labeled CXCL12 (CXCL12^AF647) for binding at CXCR4 was determined. […] Finally, given the role of CXCR4 as a major coreceptor for HIV entry, the antiviral activity of the compounds against the X4-tropic wild type HIV-1 NL4–3 strain and the HIV-2 ROD strain was determined in MT-4 cells. In parallel, the cytotoxicity of the compounds for uninfected MT-4 cells was assessed.
The calcium mobilization assay has been described in detail previously. U87.CD4.CXCR4 cells (2 × 10^4 cells per well in DMEM/10% FBS/0.01 M HEPES) were seeded in gelatin-coated (Sigma-Aldrich; 0.1% gelatin in DPBS) black-walled 96-well plates and incubated overnight at 37 °C and 5% CO2. The next day, cells were loaded with the fluorescent calcium indicator Fluo-2 acetoxymethyl (AM) ester (4 μM; Abcam) and incubated at room temperature in the dark for 45 min. Then, cells were incubated with various concentrations of the compounds for 10 min prior to the addition of 6.25 nM CXCL12 (in assay buffer). Fluctuations in intracellular calcium levels were measured in real time by the FLIPR Tetra® (Molecular Devices, Sunnyvale, CA, USA) in all 96 wells simultaneously. The response over baseline (after CXCL12 addition) was calculated with the ScreenWorks 4.0® software (Molecular Devices, Version 4.0, www.moleculardevices.com, accessed on 10 January 2015) by dividing the obtained relative light units (RLUs) through the base line measured just before CXCL12 addition. From this the IC50 value for each compound was determined taking into account the negative (i.e., untreated cells without CXCL12 stimulation) and positive (i.e., untreated cells with CXCL12 addition) control samples.
(Calcium assays in cells follow changes in intracellular calcium, usually with a dye or a luminescent sensor.)

The next series concerns HIV-1 NL4.3. Briefly: Anti-HIV-1 assay in MT-4 cells (tetrazolium-based colorimetric, cytopathic effect). Particulars: Human immunodeficiency virus 1, MT4. The class given is cell-based. The protocol: (§2) First, the ability of the compounds to compete with fluorescently labeled CXCL12 (CXCL12^AF647) for binding at CXCR4 was determined. Second, since binding of CXCL12 to CXCR4 results into a transient increase of cytosolic calcium levels, the inhibition of this CXCL12-induced calcium mobilization by the various compounds was also investigated. […] In parallel, the cytotoxicity of the compounds for uninfected MT-4 cells was assessed. […] The CD4 cell line MT-4 was obtained from the American Type Culture Collection (Rockville, MD, USA) and cultured in RPMI 1640 medium (Gibco BRL, Gaithersburg, MD, USA) with 10% heat-inactivated fetal calf serum (Biowhittaker Europe, Verviers, Belgium) and 2 mmol/L L-glutamine (Gibco BRL). […] The anti-HIV-1 and anti-HIV-2 activity in MT-4 cells was determined using a tetrazolium-based colorimetric assay. […] Threefold dilutions of the drugs in 100 μL medium were added to duplicate wells of 96-well flat bottom plates (Iwaki Glass). […] The cytopathic effect induced by the virus was checked regularly microscopically. […] Each assay was performed at least three times. […] Absorbance was recorded using the VersaMax ELISA™ microplate reader (Molecular Devices) and analyzed with the Softmax Pro® software (Molecular Devices, Version 4.0, www.moleculardevices.com, accessed on 10 January 2015). Using mock-infected cells, the cytotoxic concentration 50 (CC50) of each compound was investigated.

The next series relates to HIV-2 ROD. The experiment in a line: Anti-HIV-2 assay in MT-4 cells (tetrazolium-based colorimetric, cytopathic effect). The class given is cell-based. Particulars: Human immunodeficiency virus 2, MT4. The protocol: as §2
For orientation: Cytopathic effects are the visible damage that an infection or toxin causes in cultured cells.

The nature of series [2]: Cytotoxicity in mock-infected MT-4 cells. Type of series: cell-based. Particulars: human, mock-infected (uninfected) MT-4 cells, concentration reducing viability of mock-infected MT4 cells by 50%; mean ± SD. The procedure:
(§3) First, the ability of the compounds to compete with fluorescently labeled CXCL12 (CXCL12^AF647) for binding at CXCR4 was determined. Second, since binding of CXCL12 to CXCR4 results into a transient increase of cytosolic calcium levels, the inhibition of this CXCL12-induced calcium mobilization by the various compounds was also investigated. […] In parallel, the cytotoxicity of the compounds for uninfected MT-4 cells was assessed. […] The CD4 cell line MT-4 was obtained from the American Type Culture Collection (Rockville, MD, USA) and cultured in RPMI 1640 medium (Gibco BRL, Gaithersburg, MD, USA) with 10% heat-inactivated fetal calf serum (Biowhittaker Europe, Verviers, Belgium) and 2 mmol/L L-glutamine (Gibco BRL). The anti-HIV-1 and anti-HIV-2 activity in MT-4 cells was determined using a tetrazolium-based colorimetric assay. This assay been described in detail before. Threefold dilutions of the drugs in 100 μL medium were added to duplicate wells of 96-well flat bottom plates (Iwaki Glass). […] The cytopathic effect induced by the virus was checked regularly microscopically. […] The absorbance was then recorded at 490 nm with a 96-well plate reader and compared with four cell control replicates (cells without virus and drugs) and four virus control wells (cells with virus but without drug). Each assay was performed at least three times. […] Absorbance was recorded using the VersaMax ELISA™ microplate reader (Molecular Devices) and analyzed with the Softmax Pro® software (Molecular Devices, Version 4.0, www.moleculardevices.com, accessed on 10 January 2015). Using mock-infected cells, the cytotoxic concentration 50 (CC50) of each compound was investigated.

The subject of the next series is MT-4 cells. Briefly: Cytotoxicity in mock-infected MT-4 cells. The class given is cell-based. The procedure:
as §3

For series [3], the target named is T1, CXCR4. Briefly: CXCL12AF647 competition binding assay with Jurkat cells (flow cytometry). Further details: endogenous in cells; host or cells: Jurkat cells. Particulars: concentration needed to inhibit CXCL12 receptor binding by 50%; Jurkat cells, 2.9 nM CXCL12AF647; mean ± SD. The procedure: as §1
The CXCL12^AF647 binding assay with Jurkat cells has been described previously. Briefly, Jurkat cells were resuspended in assay buffer [Hank’s Balanced Salt Solution (HBSS, Thermo Fisher Scientific), 20 mM HEPES buffer, 0.2% bovine serum albumin (Sigma-Aldrich), pH 7.4] at 3 × 10^5 cells per sample and then treated with various concentrations of the compound at room temperature for 15 min. Afterwards, the cells were incubated with 2.9 nM CXCL12^AF647 (in assay buffer) at room temperature for 30 min in the dark. Cells were fixed in 1% paraformaldehyde in DPBS and specific CXCL12^AF647 binding [i.e., mean fluorescence intensity (MFI)] was quantified by flow cytometry (FACSCanto^TM II; Becton Dickinson). Data were analyzed with FlowJo® Software. The 50% inhibitory concentration (IC50) was calculated for each compound relative to the negative (i.e., autofluorescence of untreated and unlabeled cells) and positive (i.e., untreated cells exposed to CXCL12^AF647 only) control.
(In general: Flow cytometry measures light scatter and fluorescence of single cells or particles in a stream.)

The results in this text go back to paper PMC8539250, “Synthesis and Anti-HIV Activity of a Novel Series of Isoquinoline-Based CXCR4 Antagonists” (Molecules, 2021).

As usually defined, the IC50 is the concentration that inhibits the measured activity by half. As a reminder, the EC50 is the concentration at which the effect is half-maximal. The CC50 is the concentration that lowers cell viability or growth by half. A high value points to lower toxicity to the cells.

Structures are written as SMILES. Read-outs that look alike come from different tables or passages of the source.

T1 sequence (P61073 whole entry): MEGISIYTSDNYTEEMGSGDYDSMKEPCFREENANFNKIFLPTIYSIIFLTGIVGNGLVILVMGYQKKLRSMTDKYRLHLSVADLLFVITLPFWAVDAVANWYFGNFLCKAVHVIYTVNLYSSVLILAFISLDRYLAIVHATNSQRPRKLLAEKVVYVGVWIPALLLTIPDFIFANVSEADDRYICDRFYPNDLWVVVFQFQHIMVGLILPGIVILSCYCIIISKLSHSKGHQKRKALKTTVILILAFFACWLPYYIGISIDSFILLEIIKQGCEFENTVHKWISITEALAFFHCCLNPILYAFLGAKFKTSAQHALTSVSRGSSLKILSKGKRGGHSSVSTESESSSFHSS

For `Cc1cccnc1CN(CCCCN)Cc1nccc2cc(F)ccc12` [Compound 24c, N1-((6-Fluoroisoquinolin-1-yl)methyl)-N1-((3-methylpyridin-2-yl)methyl)butane-1,4-diamine], the IC50 at CXCR4 [1] was found to be 6.1 ± 1 nM; at CXCR4 [3], 0.64 ± 0.17 nM. The EC50 in the series with HIV-1 NL4.3 (50% protection of MT-4 cells against HIV-induced cytopathicity, mean ± SD, read-out: HIV-1 NL4.3 EC50) was 6.2 ± 5.9 nM; in the series with HIV-1 NL4.3 (MT-4 cells, read-out: EC50 against HIV-1), below 100 nM; in the series with HIV-2 ROD (50% protection of MT-4 cells against HIV-induced cytopathicity, mean ± SD, read-out: HIV-2 ROD EC50), 3.8 ± 0.29 nM; with HIV-2 ROD (MT-4 cells, read-out: EC50 against HIV-2), below 100 nM. The same molecule came in with a CC50 at 4 d in series [2] of 31000 nM. Also, the “cytotoxicity for the MT4 cell line (in words)” value in the series on MT-4 cells (MT4 cell line) is “lack cytotoxicity”. This molecule showed a CC50 with MT-4 cells (concentration reducing viability of mock-infected MT4 cells by 50%, mean ± SD) of 30800 ± 880 nM.
